In patent US9102648B1, “Bioavailable diacylhydrazine ligands for modulating the expression of exogenous genes via an ecdysone receptor complex” (Intrexon Corporation, priority 2003, dated 2015):
pEC50: −log10 of the molar value.

Legend:
[1] = biological target: GAL4 DBD (1-147)-CfEcR(DEF)/VP16AD-βRXREF-LmUSPEF (Choristoneura fumiferana, UniProt O77240); assay: cell-based; details: for Fold Induction, 27-63 Assay, 3.3 uM: 3.3 uM ligand; for Fold Induction, 27-63 Assay, 3.3 uM / Fold Induction, 27-63 Assay, 33 uM: RLU ligand treated / RLU DMSO treated cells; for Fold Induction, 27-63 Assay, 3.3 uM / Fold Induction, 27-63 Assay, 33 uM / pEC50: average of two wells; for Fold Induction, 27-63 Assay, 33 uM: 33 uM ligand; for 27-63 assay Rel Max FI: maximum fold induction at any concentration relative to that of GS-E ligand, CHO 27-63 cells; for pEC50: read-out: 27-63 assay EC50, CHO 27-63 stable cell line, luciferase reporter
[2] = biological target: GAL4 DBD-CfEcR(DEF)/VP16AD-MmRXRE (Choristoneura fumiferana, UniProt O77240); assay: 13B3 Assay (CHO stable cell line, luciferase reporter); details: for Fold Induction, 13B3 Assay, 33 uM: 33 uM ligand; for Fold Induction, 13B3 Assay, 33 uM / Fold Induction, 13B3 Assay, 3.3 uM: RLU ligand treated / RLU DMSO treated cells; for Fold Induction, 13B3 Assay, 33 uM / Fold Induction, 13B3 Assay, 3.3 uM / pEC50: average of two wells; for Fold Induction, 13B3 Assay, 3.3 uM: 3.3 uM ligand; for 13B3 assay Rel Max FI: maximum fold induction at any concentration relative to that of GS-E ligand, CHO 13B3 cells; for pEC50: read-out: 13B3 EC50, CHO 13B3 stable cell line, luciferase reporter, 48 h
Summary of the method: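 Ligands dosed at 8 levels from 33 to 0.01 μM (DMSO stocks diluted 300-fold) onto the 13B3 CHO line carrying GAL4-DBD/CfEcR-DEF, VP16/MmRXR-DE and a GAL4-responsive luciferase gene.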

SMILES	Fold Induction, 27-63 Assay, 3.3 uM [1]	Fold Induction, 27-63 Assay, 33 uM [1]	27-63 assay Rel Max FI [1]	pEC50 [1]	Fold Induction, 13B3 Assay, 33 uM [2]	Fold Induction, 13B3 Assay, 3.3 uM [2]	13B3 assay Rel Max FI [2]	pEC50 [2]
CCc1c(OC)cccc1C(=O)NN(C(=O)c1ccc(Cl)cc1OC)C(C)(C)C [RG-101218]	1097	1223	0.645	6.89	1983	–	–	–
CCc1ccc(C(=O)NN(C(=O)c2cc(C)cc(Cl)c2)C(C)(C)C)cc1 [RG-101774]	1807	1359	0.795	6.44	526	987	0.657	6.49
C=Cc1c(OC)cccc1C(=O)NN(C(=O)c1cc(C)cc(C)c1)C(C)(C)C [RG-102021]	–	2951	–	–	–	4081	1.136	5.39
Cc1cc(C)cc(C(=O)N(NC(=O)c2ccc3c(c2)CCCC3)C(C)(C)C)c1 [RG-101887]	1142	1107	0.675	6.45	542	2462	0.579	6.06
Cc1cc(C)cc(C(=O)N(NC(=O)c2ccc(CC#N)cc2)C(C)(C)C)c1 [RG-100875]	34	1592	1.004	5.05	1143	23	0.853	5.40
COc1cc(Cl)ccc1C(=O)N(NC(=O)c1cccc(OC)c1C)C(C)(C)C [RG-100848]	1181	1151	0.765	6.49	578	3391	0.666	5.78
